# Test system: production of TNF by monocytes activated with bacterial lipopolysaccharide (LPS)
# Experiment: Lipopolysaccharide-activated monocyte TNF production assay
# Format: cell-based
# Conditions: Homo sapiens; whole blood monocyte assay (LPS induced TNF release)
# Method in brief: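 Adherent human PBMC-derived monocytes preincubated 60 min with nine two-fold compound dilutions, then stimulated with E. coli K532 LPS (30 ng/mL in the added medium) for 4 h at 37 °C. Supernatant TNF measured by sandwich ELISA; IC50 is the compound concentration halving TNF production, from second-order polynomial fits.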
row,Structure (SMILES),IC50 [µM]
1,"Cc1ccc(C(=O)NC2CC2)cc1-c1ccc2c(N(C)C)nncc2c1 [Example 187, N-cyclopropyl-3-[1-(dimethylamino)phthalazin-6-yl]-4-methylbenzamide]",≤ 5
2,"COCCN(C)c1nncc2cc(-c3cc(C(=O)NC4CC4)ccc3C)ccc12 [Example 188, N-cyclopropyl-3-{1-[(2-methoxyethyl)(methyl)amino]phthalazin-6-yl}-4-methylbenzamide]",≤ 5
3,"COCCNc1nncc2cc(-c3cc(C(N)=O)ccc3C)ccc12 [Example 189, 3-{1-[(2-methoxyethyl)amino]phthalazin-6-yl}-4-methylbenzamide]",≤ 5
4,"COC[C@H](C)Nc1nncc2cc(-c3cc(C(N)=O)ccc3C)ccc12 [Example 190, 3-(1-{[(1S)-2-methoxy-1-methylethyl]amino}phthalazin-6-yl)-4-methylbenzamide]",≤ 5
5,"Cc1ccc(C(=O)NC2CC2)cc1-c1ccc2c(N[C@@H](C)C(=O)OC(C)(C)C)nncc2c1 [Example 191, tert-butyl N-(6-{5-[(cyclopropylamino)carbonyl]-2-methylphenyl}phthalazin-1-yl)-L-alaninate]",≤ 5
6,"COC[C@H](C)Nc1nncc2cc(-c3cc(C(=O)NC4CC4)ccc3C)ccc12 [Example 192, N-cyclopropyl-3-(1-{[(1S)-2-methoxy-1-methylethyl]amino}phthalazin-6-yl)-4-methylbenzamide]",≤ 5
7,"Cc1ccc(C(=O)NC2CC2)cc1-c1ccc2c(N[C@H](C)c3ccccc3)nncc2c1 [Example 193, N-cyclopropyl-4-methyl-3-(1-{[(1R)-1-phenylethyl]amino}phthalazin-6-yl)benzamide]",≤ 5
8,"COCCNc1nncc2cc(-c3cc(C(=O)NC4CC4)ccc3C)ccc12 [Example 194, N-cyclopropyl-3-{1-[(2-methoxyethyl)amino]phthalazin-6-yl}-4-methylbenzamide]",≤ 5
9,"Cc1ccc(S(C)(=O)=O)cc1-c1ccc2c(N3CCOCC3)nncc2c1 [Example 195, 6-[2-methyl-5-(methylsulfonyl)phenyl]-1-morpholin-4-ylphthalazine]",≤ 5
10,"COc1ncncc1-c1nncc2cc(-c3cc(C(N)=O)ccc3C)ccc12 [Example 196, 3-[1-(4-methoxypyrimidin-5-yl)phthalazin-6-yl]-4-methylbenzamide]",≤ 5
11,"COc1nc(N(C)C)ncc1-c1nncc2cc(-c3cc(C(=O)NC4CC4)ccc3C)ccc12 [Example 197, N-cyclopropyl-3-{1-[2-(dimethylamino)-4-methoxypyrimidin-5-yl]phthalazin-6-yl}-4-methylbenzamide]",≤ 5
12,"COc1cccc(-c2nncc3cc(-c4cc(C(N)=O)ccc4C)ccc23)c1OC [Example 198, 3-[1-(2,3-dimethoxyphenyl)phthalazin-6-yl]-4-methylbenzamide]",≤ 5
13,"Cc1ccc(C(N)=O)cc1-c1ccc2c(-c3ccc(C(F)(F)F)cc3Cl)nncc2c1 [Example 199, 3-{1-[2-chloro-4-(trifluoromethyl)phenyl]phthalazin-6-yl}-4-methylbenzamide]",≤ 5
14,"COc1c(C)cccc1-c1nncc2cc(-c3cc(C(=O)NC4CC4)ccc3C)ccc12 [Example 201, N-cyclopropyl-3-[1-(2-methoxy-3-methylphenyl)phthalazin-6-yl]-4-methylbenzamide]",≤ 5
15,"COc1ccc(-c2nncc3cc(-c4cc(C(N)=O)ccc4C)ccc23)c(C)c1 [Example 202, 3-[1-(4-methoxy-2-methylphenyl)phthalazin-6-yl]-4-methylbenzamide]",≤ 5
16,"Cc1ccc(C(N)=O)cc1-c1ccc2c(-c3ccc(CN4CCOCC4)cc3)nncc2c1 [Example 203, 4-methyl-3-{1-[4-(morpholin-4-ylmethyl)phenyl]phthalazin-6-yl}benzamide]",≤ 5
17,"COc1c(C)cccc1-c1nncc2cc(-c3cc(C(N)=O)ccc3C)ccc12 [Example 204, 3-[1-(2-methoxy-3-methylphenyl)phthalazin-6-yl]-4-methylbenzamide]",≤ 5
18,"Cc1ccc(C(=O)NC2CC2)cc1-c1ccc2c(-c3ccc(C(C)(C)C(=O)O)cc3)nncc2c1 [Example 205, 2-[4-(6-{5-[(cyclopropylamino)carbonyl]-2-methylphenyl}phthalazin-1-yl)phenyl]-2-methylpropanoic acid]",≤ 5
19,"CNc1ccc(-c2nncc3cc(-c4cc(C(=O)NC5CC5)ccc4C)ccc23)c(OC)n1 [Example 206, N-cyclopropyl-3-{1-[2-methoxy-6-(methylamino)pyridin-3-yl]phthalazin-6-yl}-4-methylbenzamide]",≤ 5
20,"COc1ccc(-c2nncc3cc(-c4cc(C(=O)NC5CC5)ccc4C)ccc23)c(C)n1 [Example 207, N-cyclopropyl-3-[1-(6-methoxy-2-methylpyridin-3-yl)phthalazin-6-yl]-4-methylbenzamide]",≤ 5
21,"Cc1ccc(C(=O)NC2CC2)cc1-c1ccc2c(-c3ccc(-c4ccc(Cl)cc4)cc3)nncc2c1 [Example 208, 3-[1-(4′-chloro-1,1′-biphenyl-4-yl)phthalazin-6-yl]-N-cyclopropyl-4-methylbenzamide]",≤ 5

row,Structure (SMILES),IC50 [µM]
1,"Cc1ccc(C(=O)NC2CC2)cc1-c1ccc2c(-c3ccc(Cl)cc3)nncc2c1 [Example 209, 3-[1-(4-chlorophenyl)phthalazin-6-yl]-N-cyclopropyl-4-methylbenzamide]",≤ 5
2,"Cc1ccc(C(=O)NC2CC2)cc1-c1ccc2c(-c3ccc(Cl)cc3C(F)(F)F)nncc2c1 [Example 210, 3-{1-[4-chloro-2-(trifluoromethyl)phenyl]phthalazin-6-yl}-N-cyclopropyl-4-methylbenzamide]",≤ 5
3,"Cc1ccc(-c2nncc3cc(-c4cc(C(N)=O)ccc4C)ccc23)c(Cl)n1 [Example 211, 3-[1-(2-chloro-6-methylpyridin-3-yl)phthalazin-6-yl]-4-methylbenzamide]",≤ 5
4,"Cc1ccc(-c2nncc3cc(-c4cc(C(=O)NC5CC5)ccc4C)ccc23)c(Cl)n1 [Example 212, 3-[1-(2-chloro-6-methylpyridin-3-yl)phthalazin-6-yl]-N-cyclopropyl-4-methylbenzamide]",≤ 5
5,"COc1cc(F)ccc1-c1nncc2cc(-c3cc(C(N)=O)ccc3C)ccc12 [Example 213, 3-[1-(4-fluoro-2-methoxyphenyl)phthalazin-6-yl]-4-methylbenzamide]",≤ 5
6,"Cc1ccc(C(N)=O)cc1-c1ccc2c(-c3ccc(S(C)(=O)=O)cc3)nncc2c1 [Example 214, 4-methyl-3-{1-[4-(methylsulfonyl)phenyl]phthalazin-6-yl}benzamide]",≤ 5
7,"Cc1ccc(C(N)=O)cc1-c1ccc2c(-c3cncnc3)nncc2c1 [Example 215, 4-methyl-3-(1-pyrimidin-5-ylphthalazin-6-yl)benzamide]",≤ 5
8,"Cc1ccc(C(N)=O)cc1-c1ccc2c(-c3cc4ccccc4[nH]3)nncc2c1 [Example 216, 3-[1-(1H-indol-2-yl)phthalazin-6-yl]-4-methylbenzamide]",≤ 5
9,"Cc1ccc(C(N)=O)cc1-c1ccc2c(-c3ccc(F)cc3C)nncc2c1 [Example 217, 3-[1-(4-fluoro-2-methylphenyl)phthalazin-6-yl]-4-methylbenzamide]",≤ 5
10,"Cc1ccc(C(=O)NC2CC2)cc1-c1ccc2c(-c3ccc(S(N)(=O)=O)cc3C)nncc2c1 [Example 218, 3-{1-[4-(aminosulfonyl)-2-methylphenyl]phthalazin-6-yl}-N-cyclopropyl-4-methylbenzamide]",≤ 5
11,"Cc1ccc(C(=O)NC2CC2)cc1-c1ccc2c(-c3ccc(C(F)(F)F)cc3Cl)nncc2c1 [Example 219, 3-{1-[2-chloro-4-(trifluoromethyl)phenyl]phthalazin-6-yl}-N-cyclopropyl-4-methylbenzamide]",≤ 5
12,"Cc1ccc(C(N)=O)cc1-c1ccc2c(-c3ccccc3C(F)(F)F)nncc2c1 [Example 220, 4-methyl-3-{1-[2-(trifluoromethyl)phenyl]phthalazin-6-yl}benzamide]",≤ 5
13,"Cc1ccc(-c2nncc3cc(-c4cc(C(N)=O)ccc4C)ccc23)c(Cl)c1 [Example 221, 3-[1-(2-chloro-4-methylphenyl)phthalazin-6-yl]-4-methylbenzamide]",≤ 5
14,"Cc1ccc(C(N)=O)cc1-c1ccc2c(-c3ccc(F)cc3Cl)nncc2c1 [Example 222, 3-[1-(2-chloro-4-fluorophenyl)phthalazin-6-yl]-4-methylbenzamide]",≤ 5
15,"Cc1ccc(C(N)=O)cc1-c1ccc2c(-c3ccc(Cl)cc3Cl)nncc2c1 [Example 223, 3-[1-(2,4-dichlorophenyl)phthalazin-6-yl]-4-methylbenzamide]",≤ 5
16,"COc1cc(Cl)ccc1-c1nncc2cc(-c3cc(C(=O)NC4CC4)ccc3C)ccc12 [Example 224, 3-[1-(4-chloro-2-methoxyphenyl)phthalazin-6-yl]-N-cyclopropyl-4-methylbenzamide]",≤ 5
17,"COc1ncc(-c2nncc3cc(-c4cc(C(N)=O)ccc4C)ccc23)c(OC)n1 [Example 225, 3-[1-(2,4-dimethoxypyrimidin-5-yl)phthalazin-6-yl]-4-methylbenzamide]",≤ 5
18,"COc1ccc(-c2nncc3cc(-c4cc(C(N)=O)ccc4C)ccc23)c(OC)c1 [Example 226, 3-[1-(2,4-dimethoxyphenyl)phthalazin-6-yl]-4-methylbenzamide]",≤ 5
19,"Cc1ccc(C(N)=O)cc1-c1ccc2c(-c3ccc(OC(C)C)cc3C)nncc2c1 [Example 227, 3-[1-(4-isopropoxy-2-methylphenyl)phthalazin-6-yl]-4-methylbenzamide]",≤ 5
20,"COc1ncccc1-c1nncc2cc(-c3cc(C(N)=O)ccc3C)ccc12 [Example 228, 3-[1-(2-methoxypyridin-3-yl)phthalazin-6-yl]-4-methylbenzamide]",≤ 5
21,"COc1ccc(-c2nncc3cc(-c4cc(C(N)=O)ccc4C)ccc23)c(Cl)c1 [Example 229, 3-[1-(2-chloro-4-methoxyphenyl)phthalazin-6-yl]-4-methylbenzamide]",≤ 5
